Measured values from PubChem BioAssay (NCI).
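Cells were grown in 96-well plates and exposed to each compound for 48 hours at five concentrations; endpoints were interpolated linearly between bracketing concentrations, or set to the highest concentration if not reached. GI50 marks 50% less growth. TGI: total growth inhibition.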

How the values were obtained:
Test in all cases: NCI-60 cell line screen, 48 h
NCI/ADR-RES ovarian = system: NCI/ADR-RES ovarian
SNB-75 CNS = system: SNB-75 CNS
EKVX NSCLC = system: EKVX NSCLC
BT-549 breast = system: BT-549 breast
NCI-H460 lung = system: NCI-H460 lung
MCF7 breast = system: MCF7 breast
NCI-H522 lung = system: NCI-H522 lung
SK-MEL-2 melanoma = system: SK-MEL-2 melanoma
COLO 205 colon = system: COLO 205 colon
ACHN renal = system: ACHN renal
SW-620 colon = system: SW-620 colon
RPMI-8226 leukemia = system: RPMI-8226 leukemia
SF-268 CNS = system: SF-268 CNS
LOX IMVI melanoma = system: LOX IMVI melanoma
NCI-H226 lung = system: NCI-H226 lung
TK-10 renal = system: TK-10 renal
DU-145 prostate = system: DU-145 prostate
MDA-MB-231 breast = system: MDA-MB-231 breast
HCT-15 colon = system: HCT-15 colon
IGROV1 ovarian = system: IGROV1 ovarian
OVCAR-5 ovarian = system: OVCAR-5 ovarian
786-0 renal = system: 786-0 renal
HCT-116 colon = system: HCT-116 colon
HS 578T breast = system: HS 578T breast
MDA-MB-435 = system: MDA-MB-435
SK-MEL-28 melanoma = system: SK-MEL-28 melanoma
U251 CNS = system: U251 CNS
OVCAR-3 ovarian = system: OVCAR-3 ovarian
HT29 colon = system: HT29 colon
RXF 393 renal = system: RXF 393 renal
SF-539 CNS = system: SF-539 CNS
OVCAR-8 ovarian = system: OVCAR-8 ovarian
MOLT-4 leukemia = system: MOLT-4 leukemia
HOP-92 NSCLC = system: HOP-92 NSCLC
SF-295 CNS = system: SF-295 CNS
K-562 leukemia = system: K-562 leukemia
SN12C renal = system: SN12C renal
OVCAR-4 ovarian = system: OVCAR-4 ovarian
CCRF-CEM leukemia = system: CCRF-CEM leukemia
SK-OV-3 ovarian = system: SK-OV-3 ovarian
UO-31 renal = system: UO-31 renal
M14 melanoma = system: M14 melanoma
HL-60(TB) leukemia = system: HL-60(TB) leukemia
UACC-62 melanoma = system: UACC-62 melanoma
A498 renal = system: A498 renal
A549 NSCLC = system: A549 NSCLC
KM12 colon = system: KM12 colon
SNB-19 CNS = system: SNB-19 CNS
SK-MEL-5 melanoma = system: SK-MEL-5 melanoma
PC-3 prostate = system: PC-3 prostate
NCI-H23 lung = system: NCI-H23 lung
HOP-62 NSCLC = system: HOP-62 NSCLC
SR leukemia = system: SR leukemia
CAKI-1 renal = system: CAKI-1 renal
T-47D breast = system: T-47D breast
MALME-3M melanoma = system: MALME-3M melanoma
HCC-2998 colon = system: HCC-2998 colon
UACC-257 melanoma = system: UACC-257 melanoma

Structure (SMILES): COc1ccc(/C=N/C2=C(C#N)C(c3ccccc3)c3c(ccc4ccccc34)O2)cc1 (stereo unspecified)
- GI50 (NCI/ADR-RES ovarian): 0.916 µM
- TGI (NCI/ADR-RES ovarian): > 100 µM
- GI50 (SNB-75 CNS): 0.466 µM
- TGI (SNB-75 CNS): 4.01 µM
- GI50 (EKVX NSCLC): 5.02 µM
- TGI (EKVX NSCLC): > 100 µM
- GI50 (BT-549 breast): 1.17 µM
- TGI (BT-549 breast): 20.9 µM
- GI50 (NCI-H460 lung): 1.37 µM
- TGI (NCI-H460 lung): 47.1 µM
- GI50 (MCF7 breast): 0.586 µM
- TGI (MCF7 breast): 24.5 µM
- GI50 (NCI-H522 lung): 0.388 µM
- TGI (NCI-H522 lung): 37.6 µM
- GI50 (SK-MEL-2 melanoma): 3.97 µM
- TGI (SK-MEL-2 melanoma): > 100 µM
- GI50 (COLO 205 colon): 2.36 µM
- TGI (COLO 205 colon): 21.2 µM
- GI50 (ACHN renal): 4.09 µM
- TGI (ACHN renal): 54.4 µM
- GI50 (SW-620 colon): 0.732 µM
- TGI (SW-620 colon): > 100 µM
- GI50 (RPMI-8226 leukemia): 2.66 µM
- TGI (RPMI-8226 leukemia): 35.3 µM
- GI50 (SF-268 CNS): 2.85 µM
- TGI (SF-268 CNS): 65.3 µM
- GI50 (LOX IMVI melanoma): 2.01 µM
- TGI (LOX IMVI melanoma): 22.8 µM
- GI50 (NCI-H226 lung): 2.17 µM
- TGI (NCI-H226 lung): 54.8 µM
- GI50 (TK-10 renal): 19.1 µM
- TGI (TK-10 renal): > 100 µM
- GI50 (DU-145 prostate): 3.26 µM
- TGI (DU-145 prostate): 18.6 µM
- GI50 (MDA-MB-231 breast): 2.5 µM
- TGI (MDA-MB-231 breast): 22.8 µM
- GI50 (HCT-15 colon): 0.564 µM
- TGI (HCT-15 colon): 29 µM
- GI50 (IGROV1 ovarian): 0.57 µM
- TGI (IGROV1 ovarian): 39.3 µM
- GI50 (OVCAR-5 ovarian): 4.53 µM
- TGI (OVCAR-5 ovarian): 37.7 µM
- GI50 (786-0 renal): 4.48 µM
- TGI (786-0 renal): 38.7 µM
- GI50 (HCT-116 colon): 0.516 µM
- TGI (HCT-116 colon): 19.2 µM
- GI50 (HS 578T breast): 2.15 µM
- TGI (HS 578T breast): 23.8 µM
- GI50 (MDA-MB-435): 0.273 µM
- TGI (MDA-MB-435): 0.834 µM
- GI50 (SK-MEL-28 melanoma): 7.14 µM
- TGI (SK-MEL-28 melanoma): 59.8 µM
- GI50 (U251 CNS): 1.87 µM
- TGI (U251 CNS): 21.1 µM
- GI50 (OVCAR-3 ovarian): 0.464 µM
- TGI (OVCAR-3 ovarian): 10.2 µM
- GI50 (HT29 colon): 0.702 µM
- TGI (HT29 colon): 15.3 µM
- GI50 (RXF 393 renal): 1.49 µM
- TGI (RXF 393 renal): 7.19 µM
- GI50 (SF-539 CNS): 1.65 µM
- TGI (SF-539 CNS): 10.4 µM
- GI50 (OVCAR-8 ovarian): 4.07 µM
- TGI (OVCAR-8 ovarian): > 100 µM
- GI50 (MOLT-4 leukemia): 1.75 µM
- TGI (MOLT-4 leukemia): > 100 µM
- GI50 (HOP-92 NSCLC): 1.16 µM
- TGI (HOP-92 NSCLC): 18.2 µM
- GI50 (SF-295 CNS): 0.482 µM
- TGI (SF-295 CNS): 11.8 µM
- GI50 (K-562 leukemia): 0.37 µM
- TGI (K-562 leukemia): > 100 µM
- GI50 (SN12C renal): 4.23 µM
- TGI (SN12C renal): 26.2 µM
- GI50 (OVCAR-4 ovarian): 8.75 µM
- TGI (OVCAR-4 ovarian): > 100 µM
- GI50 (CCRF-CEM leukemia): 0.751 µM
- TGI (CCRF-CEM leukemia): > 100 µM
- GI50 (SK-OV-3 ovarian): 4.95 µM
- TGI (SK-OV-3 ovarian): > 100 µM
- GI50 (UO-31 renal): 1.09 µM
- TGI (UO-31 renal): 37.7 µM
- GI50 (M14 melanoma): 0.459 µM
- TGI (M14 melanoma): 9.66 µM
- GI50 (HL-60(TB) leukemia): 0.649 µM
- TGI (HL-60(TB) leukemia): 6 µM
- GI50 (UACC-62 melanoma): 0.711 µM
- TGI (UACC-62 melanoma): > 100 µM
- GI50 (A498 renal): 0.594 µM
- TGI (A498 renal): 6.18 µM
- GI50 (A549 NSCLC): 1.99 µM
- TGI (A549 NSCLC): > 100 µM
- GI50 (KM12 colon): 1.16 µM
- TGI (KM12 colon): 35.4 µM
- GI50 (SNB-19 CNS): 2.06 µM
- TGI (SNB-19 CNS): 56.2 µM
- GI50 (SK-MEL-5 melanoma): 1.74 µM
- TGI (SK-MEL-5 melanoma): 18.2 µM
- GI50 (PC-3 prostate): 1.22 µM
- TGI (PC-3 prostate): 18.8 µM
- GI50 (NCI-H23 lung): 3.41 µM
- TGI (NCI-H23 lung): > 100 µM
- GI50 (HOP-62 NSCLC): 1.77 µM
- TGI (HOP-62 NSCLC): 60.1 µM
- GI50 (SR leukemia): 0.713 µM
- TGI (SR leukemia): > 100 µM
- GI50 (CAKI-1 renal): 0.457 µM
- TGI (CAKI-1 renal): 20.4 µM
- GI50 (T-47D breast): 2.41 µM
- TGI (T-47D breast): > 100 µM
- GI50 (MALME-3M melanoma): 0.649 µM
- TGI (MALME-3M melanoma): 40.4 µM
- GI50 (HCC-2998 colon): 3.81 µM
- TGI (HCC-2998 colon): 31.5 µM
- GI50 (UACC-257 melanoma): 23.4 µM
- TGI (UACC-257 melanoma): > 100 µM
